Measurements taken from the SangsterLogP compilation.

Experiment: method code SF-AS, from PMID: 744242
Conditions: pH 5.6

**Q.** Which logD does the source give for `CCOC(=O)CCCn1nnc2ccccc21` here?
**A.** Its logD is 1.86.

**Q.** For `CCOC(=O)CCCCCn1nnc2ccccc21`, which logD is on record?
**A.** Its logD is 2.68.

**Q.** With `OCCn1nc2ccccc2n1` as the compound, how does the logD read?
**A.** Its logD is 0.92.

**Q.** For `NC(=O)CCCn1nc2ccccc2n1`, which logD is on record?
**A.** The logD was 0.78.

**Q.** Which logD does the source give for `NC(=O)CCCCn1nnc2ccccc21` here?
**A.** Its logD is 0.58.

**Q.** With `CC(C)n1nnc2ccccc21` as the compound, how does the logD read?
**A.** Its logD is 1.98.

**Q.** Which logD does the source give for `CCC(C)n1nnc2ccccc21` (stereo not drawn) here?
**A.** Its logD is 2.31.

**Q.** For `CCCC(C)n1nnc2ccccc21` (stereo not drawn), which logD is on record?
**A.** The logD was 2.95.

**Q.** For `CCCCn1nnc2ccccc21`, which logD is on record?
**A.** Its logD is 2.57.

**Q.** For `CCOC(=O)CCCCn1nc2ccccc2n1`, which logD is on record?
**A.** Its logD is 2.85.

**Q.** Which logD does the source give for `OCCCn1nnc2ccccc21` here?
**A.** Its logD is 0.91.

**Q.** Which logD does the source give for `CCCCC(C)n1nnc2ccccc21` (stereo not drawn) here?
**A.** The logD was 3.44.

**Q.** Which logD does the source give for `CCn1nnc2ccccc21` here?
**A.** Its logD is 1.58.

**Q.** With `NC(=O)CCCCCn1nnc2ccccc21` as the compound, how does the logD read?
**A.** Its logD is 0.79.

**Q.** Which logD does the source give for `Cn1nnc2ccccc21` here?
**A.** The logD was 1.13.

**Q.** Which logD does the source give for `CCOC(=O)Cn1nc2ccccc2n1` here?
**A.** Its logD is 1.85.

**Q.** With `OCCn1nnc2ccccc21` as the compound, how does the logD read?
**A.** Its logD is 0.5.

**Q.** With `CCOC(=O)CCCCCn1nc2ccccc2n1` as the compound, how does the logD read?
**A.** Its logD is 3.17.

**Q.** For `CCn1nc2ccccc2n1`, which logD is on record?
**A.** The logD was 2.1.

**Q.** For `CCCCn1nc2ccccc2n1`, which logD is on record?
**A.** The logD was 3.12.

**Q.** With `OCCCn1nc2ccccc2n1` as the compound, how does the logD read?
**A.** Its logD is 1.4.

**Q.** With `CCCCC(C)n1nc2ccccc2n1` (stereo not drawn) as the compound, how does the logD read?
**A.** Its logD is 3.78.

**Q.** Which logD does the source give for `NC(=O)CCCCn1nc2ccccc2n1` here?
**A.** The logD was 1.01.

**Q.** With `CCCC(C)n1nc2ccccc2n1` (stereo not drawn) as the compound, how does the logD read?
**A.** Its logD is 3.42.

**Q.** With `CCCn1nc2ccccc2n1` as the compound, how does the logD read?
**A.** The logD was 2.53.

**Q.** With `CCCn1nnc2ccccc21` as the compound, how does the logD read?
**A.** Its logD is 2.13.

**Q.** For `CCOC(=O)CCn1nnc2ccccc21`, which logD is on record?
**A.** Its logD is 1.6.

**Q.** For `CC(C)n1nc2ccccc2n1`, which logD is on record?
**A.** The logD was 2.54.

**Q.** With `CCCCCCn1nc2ccccc2n1` as the compound, how does the logD read?
**A.** The logD was 4.24.

**Q.** With `CCOC(=O)CCn1nc2ccccc2n1` as the compound, how does the logD read?
**A.** Its logD is 2.12.

**Q.** Which logD does the source give for `NC(=O)CCCCCn1nc2ccccc2n1` here?
**A.** The logD was 1.41.

**Q.** Which logD does the source give for `NC(=O)CCCn1nnc2ccccc21` here?
**A.** Its logD is 0.37.

**Q.** For `CCOC(=O)CCCCn1nnc2ccccc21`, which logD is on record?
**A.** Its logD is 2.2.

**Q.** Which logD does the source give for `CCCCCn1nnc2ccccc21` here?
**A.** Its logD is 3.22.

**Q.** For `CCOC(=O)Cn1nnc2ccccc21`, which logD is on record?
**A.** Its logD is 1.3.

**Q.** Which logD does the source give for `CCCCCCn1nnc2ccccc21` here?
**A.** Its logD is 3.7.

**Q.** Which logD does the source give for `NC(=O)CCn1nc2ccccc2n1` here?
**A.** The logD was 0.66.

**Q.** For `CCOC(=O)CCCn1nc2ccccc2n1`, which logD is on record?
**A.** The logD was 2.41.

**Q.** For `NC(=O)Cn1nc2ccccc2n1`, which logD is on record?
**A.** The logD was 0.28.

**Q.** Which logD does the source give for `CCCCCn1nc2ccccc2n1` here?
**A.** Its logD is 3.63.

**Q.** Which logD does the source give for `CCC(C)n1nc2ccccc2n1` (stereo not drawn) here?
**A.** Its logD is 2.95.

**Q.** For `Cn1nc2ccccc2n1`, which logD is on record?
**A.** The logD was 1.64.

**Q.** For `NC(=O)Cn1nnc2ccccc21`, which logD is on record?
**A.** The logD was -0.11.
